Antagonism data for 1 compound are collected here from patent EP1944294A1, “Gamma-polymorph of a substituted pyrazoline, its preparation and use as medicaments” (Laboratorios del Dr. Esteve S.A., priority 2007, dated 2008).

This test concerns the target recombinant human cannabinoid 1 receptor (CB1) (Homo sapiens, UniProt P21554). The settings on record: compound at 1 µM; 100 % = difference between maximal effect of WIN 55,212-2 alone and WIN 55,212-2 plus Rimonabant (1 µM).

Sequence of recombinant human cannabinoid 1 receptor (CB1) (P21554 whole entry): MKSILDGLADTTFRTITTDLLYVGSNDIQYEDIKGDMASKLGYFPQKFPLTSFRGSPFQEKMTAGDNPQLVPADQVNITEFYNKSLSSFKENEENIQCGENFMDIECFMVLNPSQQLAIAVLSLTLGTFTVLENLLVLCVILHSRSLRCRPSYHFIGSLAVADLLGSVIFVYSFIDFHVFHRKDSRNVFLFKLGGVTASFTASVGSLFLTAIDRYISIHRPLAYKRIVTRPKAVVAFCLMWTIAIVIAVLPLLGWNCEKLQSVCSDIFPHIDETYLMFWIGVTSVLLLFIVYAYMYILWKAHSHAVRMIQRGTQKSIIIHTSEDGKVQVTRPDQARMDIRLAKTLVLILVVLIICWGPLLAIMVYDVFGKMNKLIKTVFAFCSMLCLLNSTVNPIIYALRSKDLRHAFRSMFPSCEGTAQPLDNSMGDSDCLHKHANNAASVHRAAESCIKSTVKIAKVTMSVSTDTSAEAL
Method: Chinese hamster ovary (CHO) cells stably expressing recombinant human cannabinoid 1 receptor (CB1) are cultured in nutrient mixture Ham's F 12 supplemented with 10 % heat-inactivated fetal bovine serum, 2 mM L-glutamine, 50 U/ml penicillin, 50 U/ml streptomycin and 0.5 mg/ml geneticin. In order to obtain cells, culture flasks are washed twice with phosphate buffered saline and scraped. Then, cells are collected by centrifugation (200 x g, 10 min) and stored dry at -80°C. Cells are homogenized in ice-cold 20 mM HEPES, 10 mM EDTA (pH 7.5) and centrifuged at 40,000 x g for 15 min at 4°C. The membrane pellet is resuspended in 20 mM HEPES, 0.1 1 mM EDTA (pH 7.5) and centrifuged for 15 min at 4°C. The final membrane pellet is resuspended in 20 mM HEPES, 0.1 1 mM EDTA (pH 7.5), and divided in aliquots and stored at -80°C until use.
The reaction is performed in 96-well plates. Membranes (15 µg protein/well) are incubated for 60 min at 30 °C in buffer (50 mM HEPES, 100 mM KCI, 5 mM MgCl2,1 mM EDTA, 0.1 % wt/vol bovine serum albumin, 5 µM GDP, saponin (10 µg/ml), 0.5 nM [^35S]GTPγS, pH 7.4) with compound at a final concentration of 1 µM in either the absence or presence of agonist WIN 55,212-2 between 3 nM and 3 µM. […] Radioactivity is determined using a Wallac Microbeta Trilux. […]

Take `O=C(NN1CCCCC1)C1=NN(c2ccc(Cl)cc2Cl)[C@@H](c2ccc(Cl)cc2)C1` [Compound A, (R)-N-piperidinyl-5-(4-chlorophenyl)-1-(2,4-dichlorophenyl)-4,5-dihydro-1H-pyrazole-3-carboxamide]: the Antagonism came out at 106%.
